In US12637469B2, “1H-pyrazole derivative and application thereof as dual target inhibitor of Syk and VEGFR2” (Ocumension Therapeutics (Suzhou) Co., Ltd., priority 2020, dated 2026):

How the values were obtained:
[1] = target: T1, Syk kinase (Homo sapiens, UniProt P43405); assay: In vitro inhibitory effect on Syk kinase (HTRF enzymatic experiment); assay type: biochemical; conditions: ATP 2 μM, read-out: IC50 (nM) for inhibition of Syk enzyme
T1 construct: purchased Invitrogen PV3857
Description: The interaction between the substrate and the enzyme was detected by HTRF, using the IC50 value of the compound as an indicator to evaluate the inhibitory effect of the compound on Syk kinase.
• Syk kinase (Invitrogen, PV3857) • DTT (Sigma #43815) • ATP (Sigma #A7699) • MgCl2 (Sigma #63020) • MnCl2 (Sigma #M1787) • EDTA (Invitrogen #15575-020) • HEPES Buffer (Invitrogen #15630-080) • HTRF® KinEASE™ TK (Cisbio #62TKOPEC, 20000 tests) • Low volume, 384-well, white polystyrene plate (Greiner #784075) • 384 Well Microplates (Greiner #781946) • Centrifuge (Eppendorf #5810R) • Pipette (Eppendorf) • Pipette (Greiner) • Pipette gun (Eppendorf) • Mutidorp Pipette • POD 810 Plate Assembler Automatic Microplate Pretreatment System • Envision Reader • Experimental Steps and Methods: • a) Compound dilution and plate-making: • 1) The compound powder was weighed, dissolved in a certain amount of DMSO at an initial concentration of 10 mM. • 2) The compound was diluted to a concentration of 0.74 mM, and plated with POD18, 135 nL per well, the starting compound concentration was 10 μM, and there were 11 concentration points, with 3-fold descending serial dilutions. • b) Enzyme-substrate reaction stage: • 1) Preparation and dilution of the experimental buffer: the 5×HTRF Buffer in the kit was diluted to 1×, and specified amounts of DTT and MgCl2 solutions were added for use. • 2) SYK enzyme reaction solution was prepared with 1×HTRF Buffer so that the final reaction concentration of SYK kinase was 0.0156 ng/μL. • 3) TK-Substrate-biotin/ATP mixture was prepared so that the final substrate concentration was controlled at 0.2 μM. ATP concentration was controlled at 2 μM. • 4) The solution and the mixture were added with a Mutidorp pipette, SYK enzyme solution and TK-Substrate-biotin/ATP mixture were each added 5 μL per well, and incubated with 23 solution for 1 hour. • c) Detection stage: • 1) 13.33 mL of ethylenediaminetetraacetic acid solution was added to the detection buffer of the kit, and specified amounts of Eu-labeled antibody and XL-665 were added to prepare the detection solution. • 2) The solution was added with a Mutidorp pipette, 10 μL of detection solution per well, and incubated with 23 solution for 1 hour. The reaction of the enzyme and substrate mixture was stopped. • 3) After centrifugation, the reading was obtained on Envision. • d) Data analyzation: the data was analyzed using XL-Fit and the IC50 value of the compound was calculated.

[2] = target: VEGFR2 kinase (KDR enzyme) (Homo sapiens, UniProt P35968); assay: In vitro inhibitory effect on VEGFR2 kinase (ADP-Glo enzymatic experiment); assay type: biochemical; conditions: read-out: IC50 (nM) for inhibition of VEFGR2 enzyme
Protocol: The VEGFR2 kinase assay kit is intended for measuring VEGFR2 kinase activity using Kinase-Glo®MAX as a detection reagent, and compound screening and analysis were conducted using the IC50 value of the compound as an indicator.
The ADP-GLO™ Kinase Assay is an analytical reaction in which a luminescent kinase is used to determine the adenosine diphosphate formed by the kinase; ADP is converted to ATP, i.e., an optical signal is generated by Ultra-Glo™ luciferase. The optical signal is positively correlated with ADP quantity and kinase activity. This assay is ideal for determining the activity of the compound, making it ideal for primary screening and kinase selectivity analysis. The ADP-Glo™ Kinase Assay can be used to monitor the activity of virtually any ADP-producing enzyme such as a kinase orATPase: • 1) The enzyme, substrate, ATP and inhibitor were diluted in a kinase buffer; • 2) 384-well plate: 1 μL of inhibitor or (5% dimethyl sulfoxide solution), 2 μL of KDR enzyme, 2 μL of matrix/ATP mixture; • 3) the mixture was incubated at room temperature for 60 minutes; • 4) 5 μL of ADP-GLO™ reagent was added; • 5) the mixture was incubated for 40 minutes at room temperature; • 6) 10 μL of kinase detection reagent was added; • 7) the mixture was incubated at room temperature for 30 minutes; • 8) the luminescence was recorded (integration time 0.5-1 sec). The data was shown in relative light units (rlu), which was directly related to the amount of […]. There was correlation between the percent of the conversion from ATP to ADP for each kinase amount and the corresponding signal-to-background ratio. • 9) Data analysis: (a) KDR enzyme was titrated with 50 μM of ATP, and the luminescent signal produced by KDR enzyme was shown; (b) staurosporine dose response was generated with 1.5 ng of KDR to determine the IC50 value of the inhibitor.

Chain of VEGFR2 kinase (KDR enzyme) (P35968 20-1356, species assumed): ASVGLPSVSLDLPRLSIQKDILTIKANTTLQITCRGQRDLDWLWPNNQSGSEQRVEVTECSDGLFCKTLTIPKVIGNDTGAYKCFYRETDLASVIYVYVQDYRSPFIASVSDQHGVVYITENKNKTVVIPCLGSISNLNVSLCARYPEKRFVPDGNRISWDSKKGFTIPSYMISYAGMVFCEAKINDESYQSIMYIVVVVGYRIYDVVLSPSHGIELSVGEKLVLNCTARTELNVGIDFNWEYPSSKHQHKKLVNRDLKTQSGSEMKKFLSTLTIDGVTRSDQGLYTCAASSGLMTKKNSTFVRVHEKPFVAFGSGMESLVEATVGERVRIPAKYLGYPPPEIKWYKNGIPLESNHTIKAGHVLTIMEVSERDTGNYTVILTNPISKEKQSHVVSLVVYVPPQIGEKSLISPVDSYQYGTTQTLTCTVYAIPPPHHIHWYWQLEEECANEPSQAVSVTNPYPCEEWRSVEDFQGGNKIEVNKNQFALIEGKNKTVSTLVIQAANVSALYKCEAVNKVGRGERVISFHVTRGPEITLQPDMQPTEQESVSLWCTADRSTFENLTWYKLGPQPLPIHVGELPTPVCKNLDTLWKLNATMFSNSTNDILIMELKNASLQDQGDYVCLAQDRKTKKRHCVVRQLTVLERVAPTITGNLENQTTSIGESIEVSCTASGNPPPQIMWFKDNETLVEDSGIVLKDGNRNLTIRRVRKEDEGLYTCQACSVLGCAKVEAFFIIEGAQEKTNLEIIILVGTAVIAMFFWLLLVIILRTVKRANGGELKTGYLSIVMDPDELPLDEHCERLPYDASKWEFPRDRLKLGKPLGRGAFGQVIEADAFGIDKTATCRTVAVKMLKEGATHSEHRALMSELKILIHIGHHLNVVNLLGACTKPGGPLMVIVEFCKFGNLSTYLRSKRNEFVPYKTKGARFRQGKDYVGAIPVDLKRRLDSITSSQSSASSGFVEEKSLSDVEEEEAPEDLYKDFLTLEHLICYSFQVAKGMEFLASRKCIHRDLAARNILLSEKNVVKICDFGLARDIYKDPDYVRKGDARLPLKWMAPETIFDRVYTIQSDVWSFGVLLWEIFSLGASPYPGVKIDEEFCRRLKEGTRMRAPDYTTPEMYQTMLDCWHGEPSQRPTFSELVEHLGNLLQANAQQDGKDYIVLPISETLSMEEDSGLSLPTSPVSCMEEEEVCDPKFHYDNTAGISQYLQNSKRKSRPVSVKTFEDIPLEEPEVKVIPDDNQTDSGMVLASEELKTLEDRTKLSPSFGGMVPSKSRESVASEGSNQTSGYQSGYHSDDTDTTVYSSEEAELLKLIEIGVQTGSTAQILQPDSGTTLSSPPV

Row | SMILES | IC50 [1] | IC50 [2]
1 | c1cn2c(n1)c(Nc1ccc(N3CCOCC3)cc1)nc1ccc(-c3cc[nH]n3)cc12 [Compound 2] | 125 nM | 31 nM
2 | c1cn2c(n1)c(Nc1ccc(N3CCN(C4COC4)CC3)cc1)nc1ccc(-c3cn[nH]c3)cc12 [Compound 5] | 17 nM | 19 nM
3 | CN1CCN(c2ccc(Nc3nc4ccc(-c5cn[nH]c5)cc4n4ccnc34)cc2)CC1 [Compound 6] | 50 nM | 44 nM
4 | CN1CCCN(c2ccc(Nc3nc4ccc(-c5cn[nH]c5)cc4n4ccnc34)cc2)CC1 [Compound 7] | 34 nM | 42 nM
5 | CC1(O)CCN(c2ccc(Nc3nc4ccc(-c5cn[nH]c5)cc4n4ccnc34)cc2)CC1 [Compound 8] | 30 nM | 31 nM
6 | N=S1(=O)CCN(c2ccc(Nc3nc4ccc(-c5cn[nH]c5)cc4n4ccnc34)cc2)CC1 [Compound 9] | 23 nM | 22 nM
7 | CC(=O)N=S1(=O)CCN(c2ccc(Nc3nc4ccc(-c5cn[nH]c5)cc4n4ccnc34)cc2)CC1 [Compound 10] | 11 nM | 41 nM
8 | c1cn2c(n1)c(Nc1ccc(C3CCOCC3)cc1)nc1ccc(-c3cn[nH]c3)cc12 [Compound 11] | 34 nM | 56 nM
9 | c1cn2c(n1)c(Nc1ccc(N3CCC4(CC3)COC4)cc1)nc1ccc(-c3cn[nH]c3)cc12 [Compound 12] | 315 nM | 88 nM
